According to US20110281747A1, “BIOMARKERS FOR PREDICTING RAPID RESPONSE TO HCV TREATMENT” (ROCHE MOLECULAR SYSTEMS, INC., priority 2009, published 2011):

Columns and labels:
[1] = Phase II clinical trial of RO4588161: premature withdrawal for safety reasons; format: in vivo, human
Source text: This was a phase 2A, multi-center, randomized, double-blinded (RO4588161 and ribavirin were double-blinded and Pegasys was open labeled), active-controlled, with a parallel-group study which is ongoing. A screening period (time from the first screening assessment to the first administration of test drug) of 35 days preceded the treatment portion of the trial (FIG. 1). The HCV genotype and HCV RNA titer of each patient was confirmed during the screening period and only treatment-naïve patients with HCV genotype-1 and HCV RNA titer ≧50,000 IU/mL were eligible for enrollment.
One hundred and seven male and female patients between 18 and 66 years of age were enrolled into the study. Patients were randomized into four treatment groups: • Group A/Dual 1500 [RO4588161 1500 mg oral, twice daily+Pegasys 180 μg subcutaneous, once weekly] for 4 weeks—21 patients, • Group B/Dual 3000 [R04588161 3000 mg oral, twice daily+Pegasys 180 μg subcutaneous, once weekly] for 4 weeks—34 patients, • Group C/Triple 1500 [R04588161 1500 mg oral, twice daily+Pegasys 180 μg subcutaneous, once weekly+ribavirin 1000 mg (<75 kg) or 1200 mg (≧75 kg) oral daily] for 4 weeks—31 patients or • Group D/standard of care (SOC) [Pegasys 180 μg subcutaneous, once weekly+ribavirin 1000 mg (<75 kg) or 1200 mg (≧75 kg) oral daily] for 4 weeks—21 patients […]

[2] = tested on: HCV; conditions: monotherapy; cited from earlier work
[3] = in vivo; cited from earlier work

For CC(C)C(=O)OC[C@@]1(N=[N+]=[N-])O[C@@H](n2ccc(N)nc2=O)[C@H](OC(=O)C(C)C)[C@@H]1OC(=O)C(C)C [RO4588161, Isobutyric acid (2R,3S,4R,5R)-5-(4-amino-2-oxo-2H-pyrimidin-1-yl)-2-azido-3,4-bis-isobutyryloxy-tetrahydro-furan-2-ylmethyl ester], the “patients who prematurely withdrew for safety reasons from treatment” value ([1]; among the 104 evaluable patients) was 43 patients.
In the case of NC(=O)c1ncn([C@@H]2O[C@H](CO)[C@@H](O)[C@H]2O)n1 [ribavirin, 1-((2R,3R,4S,5R)-3,4-Dihydroxy-5-hydroxymethyl-tetrahydro-furan-2-yl)-1H-[1,2,4]triazole-3-carboxylic acid amide], the “effect on serum levels of HCV-RNA” value [2] is given as “does not lower serum levels of HCV-RNA”, the “patients whose serum amino transferase levels are reduced to normal” value [2] is given as 40% and the “patients who prematurely withdrew for safety reasons from treatment” value ([1]; both, human, in vivo, 4 weeks) is given as 5 patients. For the same compound, the “patients with hemolytic anemia requiring dose reduction or discontinuation of ribavirin therapy” value [3] was 10 to 20%.
